“Also recorded” adds a separate entry of the source.
How the values were obtained:
[1] = tested on: B6129S1 hybrid Col4a3−/− mice; assay: Mouse Alport model of kidney fibrosis, Study 1; assay type: in vivo
Description: Mice with mutations in one of the collagen IV genes of glomerular basement membrane collagen, Collagen IV-α3/α4/α5, have defects in glomerular function with development of kidney fibrosis. These mice develop renal dysfunction and die prematurely of renal failure with specific timing dependent on the strain background upon which the mutation is present.
Generation of Col4a3^−/−mice was as described in Miner, J. H., and Sanes, J. R. (1996), J. Cell Biol. 135:1403-1413. Studies of Compound 1 efficacy in Alport models of kidney fibrosis were performed using mice on two different strain backgrounds. Study 1 used B 6129S1 F1 hybrid Alport mice that usually reach end stage renal disease (ESRD) at about 17 to 19 weeks. These were generated by crosses between C57BL6/J (B 6) and 129S1/Sv1mJ (129S1) Alport mice. Study 2 used inbred 129S1 Col4a3^−/− mice, which usually reach ESRD at about 11 to 13 weeks.
Study 1—B6129S1 hybrid Col4a3^−/− mice were given administrations via intraperitoneal injection of either vehicle (PBS) or Compound 1 (10 mg/kg) once a day from 6 to 17-weeks of age. There were 12 mice per group. B6129S1 hybrid Col4a3^+/− mice were used as non-disease controls. Compound 1 was dissolved at 2 mg/mL in PBS twice a week. The dosing volume was calculated as body weight (g)*5 μL (e.g. body weight 20 g: 20*5=100 μL).
Urine and blood samples were collected at the time points of 12, 15, and 17-weeks of age for B6129S1 hybrid Col4a3^+/−, −/− mice and at 8 and 10-weeks of age for inbred 129S1 Col4a3^−/− mice. Urinary protein concentration was determined by Bradford assay (Cat. 5000006, Bio-Rad) and comparison with bovine serum albumin standards. Urinary creatinine was measured by QuantiChrom™ Creatinine Assay Kit (Cat.DICT-500, BioAssay systems) and used to normalize the amount of urine. Blood urea nitrogen (BUN) levels were measured by QuantiChrom™ Urea Assay Kit (Cat.DUR2-100, BioAssay systems). Urine and blood samples were stored at −20° C. and −80° C. respectively after collection and subsequently analyzed.
For biochemistry, kidneys were collected from 15 and 17-week old B 6129S1 hybridCol4a3^+/−, −/− mice; and from 8 and 10-week old inbred 129S1 Col4a3^−/− mice. Collected kidneys were quickly frozen by liquid nitrogen and stored at −80° C. Kidneys were minced in cold PBS containing protease inhibitor (Cat. 786-108, G-BIOSCIENCES), centrifuged, and supernatants were removed. Tissue pellets were washed with PBS and centrifuged again. Tissue pellets were lysed with RIPA buffer containing protease inhibitor and phosphatase inhibitor (Sigma-Aldrich, Cat. P5726). Protein concentration was measured by BCA assays (Cat. 23227, ThermoFisher). The following antibodies were used in western blotting: anti-kidney injury molecule 1 (KIM1) antibody (AF1817, R&D), anti-Lipocalin2/NGAL antibody (ab70287, abcam), anti-phosho-STAT3 antibody (#9145, CST), anti-CTGFantibody (sc-365970, Santa Cruz), anti-TGFb 1,2,3 antibody (MAB1835, R&D), anti-Fibronectin antibody (F3648,Sigma), anti-alpha smooth muscle acting (SMA) antibody (F3777, Sigma), anti-Collagen I antibody (1310-01, SouthernBiotech), anti-Collagen IV antibody (1340-01, SouthernBiotech), anti-alpha Tubulin antibody (#2144, CST).
For all groups, analysis includes measurement of blood urea nitrogen and urinary albumin: creatinine ratios. The analysis also includes renal histopathology (glomerulosclerosis and tubulo-interstitial fibrosis; and analysis of glomerular basement membrane and podocyte ultrastructure. Plasma samples are analyzed for Compound 1 concentration to ensure adequate circulating levels for efficient target engagement. qRT-PCR is performed using RNA from several relevant tissues to examine expression of known transcriptional targets of PPARδ (e.g., PGC1α).
All data are presented as mean±SEM. Statistical significance was determined by Oneway ANOVA with Dunnett's multiple comparison for more than three group comparison and Student's t test for two group comparison.

2K1C rat clipped kidney = details: cited from earlier work
[2] = 10 mg/kg i.p., compared with vehicle-treated mice
[3] = whole kidneys, western blotting

## Cc1cc(OC/C=C(/c2ccc(F)cc2)c2ccc(C#CCN3CCOCC3)cc2)ccc1OCC(=O)O [Compound 1, (E)-[4-[3-(4-Fluorophenyl)-3-[4-[3-(morpholin-4-yl)propynyl]phenyl]allyloxy]-2-methyl-phenoxy]acetic acid]
[1]; 10 mg/kg i.p. once a day from 6 to 17-weeks of age
  kidney dysfunction: attenuated
[1]; 10 mg/kg i.p. once a day, at 12 and 17-weeks of age
  blood urea nitrogen (BUN): suppressed the increase
[1]; 10 mg/kg i.p. once a day, at 17-weeks of age (late stage)
  proteinuria: suppressed; also recorded: significantly reduced
[1]; 10 mg/kg i.p., H&E and Trichrome kidney sections
  renal histology: slightly improved
[1]; [2]
  extent of fibrosis: slightly decreased; also recorded: decreased
  necrotic regions in the cortex: decreased
[1]; 10 mg/kg i.p., microscopic examination of kidney sections
  infiltration of inflammatory cells: slightly reduced
[1]; [3]
  CTGF expression: attenuated
  Collagen I expression: decreased
  Collagen IV expression: decreased
  NGAL protein level: decreased
  alpha-SMA expression: decreased
  fibronectin expression: not changed
  phosho-Stat3 expression: attenuated
[1]; whole kidneys, western blotting, vs vehicle
  KIM-1 protein level: not changed
2K1C rat clipped kidney; 2K1C rat kidneys
  levels of MCAD, COXIV, TFAM and Parkin proteins and AMPK activation: remained at the physiological levels
  mitochondrial biogenesis and autophagy (PGC1-a, LC3-II, ATG5): inhibited similarly in both treated and untreated
2K1C rat clipped kidney; 2K1C rat, compared to untreated animals
  BNIP3 protein in the mitochondrial fraction: decreased notably
2K1C rat clipped kidney; 2K1C rat, treated kidneys
  nuclear amounts of oxidative stress-responsive proteins NRF1 and NRF2: below physiological levels
2K1C rat clipped kidney; 2K1C rat, treated vs untreated clipped kidneys
  histochemical features of necrosis in clipped kidney: did not exhibit any histochemical features of necrosis
2K1C rat clipped kidney; 2K1C rat
  fibrotic lesions in clipped kidney: present only in perivascular areas
  oxidative stress in kidneys: attenuated

Reference: US20220370467A1, “USING OF A PPAR-DELTA AGONIST IN THE TREATMENT OF KIDNEY DISEASE” (Reneo Pharmaceuticals, Inc., priority 2019, published 2022)
